Assays:
[1] = system: paw edema; assay: Anti-inflammatory activity (% inhibition in paw edema); format: in vivo; conditions: dose 40 mg/kg p.o.; albino rats
Text: (§1) Solvents were dried and distilled before use. Dimethyltin(IV) dichloride di-n-butyltin(IV) dichloride, diphenyltin(IV) dichloride, trimethyltin(IV) chloride, tri-i-propyltin(IV) chloride, tri-n-butyltin(IV) chloride, triphenyltin(IV) chloride (E. Merck), di-n-octyltin(IV) oxide (Aldrich), and disodium salt of 5′-guanosine monophosphate (Na2(5′-GMP) (Sigma) were used as received. The elemental analysis, namely, melting points, carbon, hydrogen, nitrogen, and tin of the synthesized compounds was determined on the same instruments as reported earlier. Infrared and far-infrared spectra were recorded on a Perkin-Elmer 1600 series FT IR spectrophotometer in the range 4000–400 cm^−1 from KBr discs and 600–200 cm^−1 from CsI discs. ^1H and ^13C spectra were recorded on a Bruker DRX 300 (300 MHz FT NMR) spectrometer at the Central Drug Research Institute, Lucknow, India, using CD3OD as solvent and TMS as the internal standard. ^119Sn NMR spectra were recorded on a Bruker DRX 500 (500 MHz FT NMR) spectrometer at the Institute Instrumentation Centre, IIT, Roorkee, India, using DMSO-d6/CD3OD as solvent and TMS as the internal standard. ^119Sn Mössbauer spectra were recorded on Mössbauer spectrometer model MS-900 according to the procedure reported previously at the Department of Chemistry and Physics, University of The District of Columbia, Washington, DC, USA [21, 22]. Toxicity (LD50: average lethal dose at 50% survival) and anti-inflammatory activity of the studied derivatives were determined according to the procedures reported earlier.

[2] = system: albino rats; format: in vivo; conditions: p.o.
Text: as §1

[3] = Solubility in organic solvents (observation); format: physicochemical; conditions: for Solubility in DMSO-d6/CDCl3/CD3OD: NMR solvents DMSO-d6/CDCl3/CD3OD
Text: All of the synthesized compounds are obtained as white or cream solid in 65–81% yield and stable towards air and moisture. They are insoluble in common organic solvents but sparingly soluble in DMSO. They decomposed at high temperature instead of melting, which indicates their polymeric nature. […] In the entire studied derivatives one molecule of water is also involved.
The chemical shifts of various magnetically nonequivalent carbons of (5′-GMP)^2− have been assigned in the studied derivatives. The C-5′ resonances in organotin(IV) derivatives of (5′-GMP)^2− are shifted towards downfield upon complexation as compared with that of ligand, which indicate the involvement of phosphate group (PO3)^2− in bonding with tin. While all other carbon shifts remains almost unchanged, the ^13C chemical shifts of alkyl and phenyl groups attached to tin are also observed in the expected regions which are consistent with previously reported values. The characteristic resonances in the ^119Sn NMR spectra of some of the studied derivatives, recorded in dimethylsulfoxide-d 6, are also presented in Table 2. […] The ^119Sn chemical shifts in iso-Pr3Sn(IV), Ph2Sn(IV), and Ph3Sn(IV) derivatives of (5′-GMP)^2− are observed at δ −256, −225, and −226 ppm, which are characteristic of the five-coordinated organotin(IV) derivatives.

[Me2Sn(5′-GMP)·H2O]n
Anti-inflammatory activity % inhibition (paw edema) [1]: 18.12% | Toxicity LD50 [2]: >400 mg/kg | Solubility in DMSO-d6 [3]: poor solubility

[n-Bu2Sn(5′-GMP)·H2O]n
Anti-inflammatory activity % inhibition (paw edema) [1]: 16.32% | Toxicity LD50 [2]: >400 mg/kg | Solubility in DMSO-d6 [3]: poor solubility | Solubility in DMSO-d6/CDCl3/CD3OD [3]: extremely low solubility

[(Ph3Sn)2(5′-GMP)·H2O]n
Anti-inflammatory activity % inhibition (paw edema) [1]: 20.63% | Toxicity LD50 [2]: >400 mg/kg

[(n-Bu3Sn)2(5′-GMP)·H2O]n
Anti-inflammatory activity % inhibition (paw edema) [1]: 17.34% | Toxicity LD50 [2]: >400 mg/kg | Solubility in DMSO-d6 [3]: poor solubility

[(i-Pr3Sn)2(5′-GMP)·H2O]n
Toxicity LD50 [2]: >400 mg/kg

[(Me3Sn)2(5′-GMP)·H2O]n
Solubility in DMSO-d6 [3]: poor solubility | Solubility in DMSO-d6/CDCl3/CD3OD [3]: extremely low solubility

CCCCC1C(=O)N(c2ccccc2)N(c2ccccc2)C1=O [Phenyl butazone, reference compound]
Anti-inflammatory activity % inhibition (paw edema) [1]: 34.56%

[Ph2Sn(5′-GMP)·H2O]n
Anti-inflammatory activity % inhibition (paw edema) [1]: 19.22% | Toxicity LD50 [2]: >400 mg/kg

— PMC3767334, “Interaction of 5′-Guanosine Monophosphate with Organotin(IV) Moieties: Synthesis, Structural Characterization, and Anti-Inflammatory Activity” (ISRN Organic Chemistry, 2012)
